Series [1] in a line: Fluorescence response of the probes to H2O2 (luminescence spectroscopy, fluorescence turn-on). Particulars: for increase in fluorescence in response to excess H2O2 (fluorescence turn-on): 1 μM probe, 50 mM HEPES pH 7.5, H2O2 300 eq (300 μM), ratio of integrated final and initial emission; for change of emission on treatment with H2O2: 50 mM HEPES pH 7.5; for relation of relative emission to H2O2 concentration: 15 min incubation with H2O2, integrated emission. In kind it is physicochemical. The protocol:
Fluorescence emission spectra were recorded with a Perkin-Elmer LS-55 fluorescence spectrometer. To a 2.0 mL solution of probe of varying concentrations in HEPES buffer (50 mM, pH 7.5) was added H2O2 in HEPES to monitor fluorescence turn-on. Spectra were monitored over time at room temperature with quartz cuvettes.
To quantitate the fluorescence turn-on, a sample of each probe (1 μM in 50 mM HEPES pH 7.5) was prepared. An excess of H2O2 (300 eq, 300 μM) was added to the latent fluorophore and spectra were recorded until no increase in fluorescence intensity was observed, signifying a complete reaction. The collected initial and final emission spectrum were integrated, and the ratio reports the fluorescence turn on.
FBBBE and CBBE were evaluated for H2O2 sensitivity under simulated physiological conditions (50 mM HEPES, pH 7.5). For FBBBE, the installation of the benzyl protecting group forces the compound to remain in the closed lactone form, rendering FBBBE (and FBn) nonfluorescent. […] Along with the observed fluorescence increase, the absorption spectrum of FBBBE considerably changed upon H2O2 addition with a large increase in the visible absorption band (λmax=494 nm). The final spectrum recorded was identical to that of an authentic sample of fluorescein, providing additional proof that the probe was undergoing complete deprotection to the desired product (FIG. 7). […] FBBBE was incubated with different concentrations of H2O2 for 15 min and then the emission spectrum was collected.
The coumarin-based compound, CBBE, was nonfluorescent in the absence of H2O2. […] (FIG. 12).
(§1) Additional studies were performed to quantify the fluorescence turn-on for each probe to directly compare the sensitivity to H2O2. […] To determine the sensitivity of these probes in a more quantitative fashion, pseudo first-order kinetic measurements were performed using UV-Vis absorption spectroscopy. The observed rate constants for FBBBE and CBBE activation by H2O2 were kobs=3.1×10-5 s-1 and kobs=4.6×10-3 s-1, respectively. It was determined that the deprotection of CBBE was much faster than FBBBE. This may be likely due to the fact that FBBBE contains two boronic ester triggers that are required for complete release of the fluorophore. Recently, it has been shown that boronic ester based probes can be sensitive to other biologically relevant ROS, such as hypochlorite (—OCl) and peroxynitrite (—ONOO).^[26]

Series [2] can be described thus: Solubility in aqueous buffer. In kind it is physicochemical. To be noted: ~1% DMSO (by volume), micromolar concentrations. From the text: The corresponding control compound lacking the boronic ester trigger was also synthesized for evaluation (FIG. 3, CBn). Both CBBE and FBBBE were quite soluble in aqueous buffer, using only ˜1% DMSO (by volume) when preparing samples at micromolar concentrations.

Series [3] is described as follows: Fluorescent response of probe to hypochlorite compared with H2O2. Format: physicochemical. Particulars: 1 μM probe, 100 μM ROS, 50 mM HEPES pH 7.5, 25° C. The method, then:
FIG. 16. Histograms of fluorescent responses of 1 μM FBBBE to hydrogen peroxide (H2O2) and hypochlorite (OCl^−): (Data shown are for 100 μM of each ROS) hydrogen peroxide and hypochlorite were delivered from 30% and 5% aqueous solutions, respectively and spectra were acquired in 50 mM HEPES (pH 7.5) wherein all data were obtained after incubation with the appropriate ROS at 25° C.; the collected emission was integrated between […] (λex=480 nm), and bars represent relative responses (left to right) at 5 (white), 15 (light gray), 30 (gray), 45 (dark gray), and 60 min (black) after addition of ROS.
as §1, with “Recently, it has been shown that boronic ester based probes can be sensitive to other biologically relevant ROS, such as hypochlorite (—OCl) and peroxynitrite (—ONOO).^[26]” left out

The subject of series [4] is RAW 264.7 cells. Briefly: Confocal fluorescence imaging of H2O2 in RAW 264.7 macrophages. Format: cell-based, Murine. To be noted: for fluorescence in cells treated with PBS, LPS or H2O2: 50 μM compound 1 h, fixed RAW 264.7 cells. The protocol:
RAW 264.7 macrophages were grown in DMEM supplemented with 10% heat-inactivated fetal bovine serum, 2 mM L-glutamine, 100 μg/mL penicillin, and 100 μg/mL streptomycin (Life Technologies, Carlsbad, Calif.). For confocal microscopy, the RAW 264.7 cells were seeded at 250,000 in glass bottom 35 mm dishes (MatTek Corporation, Ashland, Mass.) and post-adhering (5 h), some dishes were treated with 1 μg/mL of LPS (Sigma-Aldrich, St. Louis, Mo.) for 24 h. Other dishes were treated the next day after plating with either 100 μM H2O2 for 1 h or PBS for 1 h. Cells were washed twice with PBS and fixed in ice-cold 95% ethanol for 15 min. Cells were twice rinsed with PBS and incubated with either 50 μM probe (FBBBE) or 50 μM control (FBn) for 1 h at room temperature. Cells were washed twice with PBS and coverslips were mounted over cells using Aqua Mount (Thermo Scientific, Waltham, Mass.). Confocal images were obtained at 80× magnification on an Olympus FV1000 confocal laser scanning microscope. Images were processed using ImageJ software (NIH).
FBBBE was examined for H2O2 detection in biological samples via confocal microscopy. Murine macrophage RAW 264.7 cells were treated with PBS buffer (unstimulated cells), lipopolysaccharide (LPS, stimulated cells), or with exogenous H2O2, followed by incubation with either FBBBE (FIG. 5a-c) or FBn (FIG. 5d-f). The inflammatory effects of LPS in macrophages are well established and result in a burst of reactive oxygen species and reactive nitrogen intermediates among other inflammatory signatures.^[27] […] The cells are washed and fixed prior to incubating with the probe.

Series [5] deals with mouse brain. Put plainly: Confocal fluorescence imaging of H2O2 in mouse brain tissue sections (ex vivo). Particulars: for fluorescence turn-on in brain tissue: 50 μM compound 1 h, sections incubated with PBS or 100 μM H2O2. The protocol:
(§2) 3-4 week old female C57BL/6J mice were purchased from Jackson Laboratory (Bar Harbor, Me.). Mice were sacrificed and perfused with sterile PBS. The brain and spinal cord were harvested and imbedded in Tissue-Tek® OCT Compound (Sakura Finetek USA, Torrance, Calif.) and frozen in dry ice before storage at −80° C. All animal studies were reviewed and approved by the University of California, San Diego Institutional Animal Care and Use Committee (La Jolla, Calif.).
For confocal microscopy, the frozen tissue was cut into 10-μm sections on a Leica cryomicrotome and mounted on slides. Tissue sections were fixed in ice-cold 95% ethanol for 15 min and rehydrated in PBS for 5 min at room temperature in a humidity chamber. Tissue sections were either incubated with PBS or 100 μM H2O2 for 1 h at room temperature in a humidity chamber, followed by a 1 h incubation with either 50 μM probe (FBBBE) or 50 μM control (FBn) and a 10 min nuclear stain (DAPI, 4′,6-diamidino-2-phenylindole). The sections were rinsed in PBS and hydrated in water. Coverslips were mounted using Aqua Mount (Thermo Scientific, Waltham, Mass.). Confocal images were obtained at 40× or 80× magnification on an Olympus FV1000 confocal laser scanning microscope. Images were processed using ImageJ software.
Cellular studies were extended to a more physiologically relevant model for H2O2 detection. H2O2 is particularly active in the brain and neuronal tissue, triggered by the metabolism of neurotransmitters.^[28] The brain and spinal cord from 3-4 week old female C57BL/6J mice were excised, frozen in OCT medium, and 10 μm sagittal cryosections were prepared for staining with FBBBE and FBn. At this age, the mice undergo extensive neuronal development and remodeling. Such activity has been associated with higher levels of neurotransmitter activity and ROS in both neurons and microglial cells in the brain. Consistent with the previous experiments, the sections were either incubated with PBS (unstimulated) or H2O2 (FIG. 6). […]

Series [6] has as its system mouse spinal cord. Put plainly: Confocal fluorescence imaging of H2O2 in mouse spinal cord tissue sections (ex vivo). To be noted: 50 μM probe 1 h. The protocol: as §2
For confocal microscopy, the frozen tissue was cut into 10-μm sections on a Leica cryomicrotome and mounted on slides. Tissue sections were fixed in ice-cold 95% ethanol for 15 min and rehydrated in PBS for 5 min at room temperature in a humidity chamber. Tissue sections were either incubated with PBS or 100 μM H2O2 for 1 h at room temperature in a humidity chamber, followed by a 1 h incubation with either 50 μM probe (FBBBE) or 50 μM control (FBn) and a 10 min nuclear stain (DAPI, 4′,6-diamidino-2-phenylindole). The sections were rinsed in PBS and hydrated in water. […]
To further investigate whether FBBBE is activated by truly endogenous levels of H2O2, the probe was evaluated in the spinal cord. […] The lack of fluorescence signal from the H2O2-treated samples may be due to an inability of FBBBE to penetrate the spinal cord tissues, which is then subsequently washed away before the image is taken.

The conditions of series [7]: cited from earlier work.

For `CC1(C)OB(c2ccc(COc3ccc4ccc(=O)oc4c3)cc2)OC1(C)C` [CBBE, 7-((4-(4,4,5,5-tetramethyl-1,3,2-dioxaborolan-2-yl)benzyl)oxy)-2H-chromen-2-one], in series [1], the “increase in fluorescence in response to excess H2O2 (fluorescence turn-on)” value came to 57 fold, the “change of emission on treatment with H2O2” value (shortened to “change of emission”) is listed as “quickly turned on” and the “relation of relative emission to H2O2 concentration” value is recorded as “linear correlation”. Further, the “solubility in aqueous buffer” value in series [2] is listed as “quite soluble”.

In the case of `O=c1ccc2ccc(OCc3ccccc3)cc2o1` [CBn, 7-(benzyloxy)-2H-chromen-2-one, reference compound], the “change of emission” value in series [1] was “no change”.

As for `CC1(C)OB(c2ccc(COc3ccc4c(c3)Oc3cc(OCc5ccc(B6OC(C)(C)C(C)(C)O6)cc5)ccc3C43OC(=O)c4ccccc43)cc2)OC1(C)C` [FBBBE, 3′,6′-bis((4-(4,4,5,5-tetramethyl-1,3,2-dioxaborolan-2-yl)benzyl)oxy)-3H-spiro[isobenzofuran-1,9′-xanthen]-3-one], in series [1], the “increase in fluorescence in response to excess H2O2 (fluorescence turn-on)” value stood at 52 fold, the “change of emission” value is given as “large increase in fluorescence” and the “relation of relative emission to H2O2 concentration” value was “linear correlation”. The “sensitivity to other ROS (OCl-) compared to H2O2” value in series [3] is reported as “less sensitive”. Moreover, the “fluorescence in cells treated with PBS, LPS or H2O2” value in series [4] is “observed in all cells”. In series [4] (50 μM probe, 1 μg/mL LPS 24 h, p<0.001), the “mean fluorescence, PBS or H2O2 vs LPS treated cells” value is “statistically different”. Besides, the “mean fluorescence, PBS vs H2O2 treated cells” value in series [4] (50 μM probe, 100 μM H2O2 1 h) is reported as “not statistically different”. The “fluorescence turn-on in brain tissue” value in series [5] was “sufficient to activate the probe”. In addition, in series [5] (50 μM probe, 100 μM H2O2 vs PBS), the “effect of exogenous H2O2 on fluorescence in brain tissue” value is given as “did not alter the fluorescence levels observed”. The “fluorescence in spinal cord tissue with exogenous H2O2” value in series [6] (100 μM H2O2, compared to brain tissue) is on record as “minimal amount of fluorescence”. For the same compound, the “probe activation in unstimulated spinal cord tissue” value in series [6] (PBS) is “essentially inactive”. Besides, the “solubility in aqueous buffer” value in series [2] is “quite soluble”.

In the case of `O=C1OC2(c3ccc(OCc4ccccc4)cc3Oc3cc(OCc4ccccc4)ccc32)c2ccccc21` [FBn, 3′,6′-bis(benzyloxy)-3H-spiro[isobenzofuran-1,9′-xanthen]-3-one, reference compound], the “change of emission” value in series [1] was “does not show any changes”. In addition, the “fluorescence in cells treated with PBS, LPS or H2O2” value in series [4] is reported as “no turn on of fluorescence in any of the cells”. Further, the “fluorescence turn-on in brain tissue” value in series [5] is recorded as “no fluorescence turn on was observed”.

Turning to `O=C1OC2(c3ccc(O)cc3Oc3cc(O)ccc32)c2ccccc21` [Fluorescein], in series [7], the water solubility result is given as “excellent water solubility”.

The record behind these values is patent US20140248218A1, “ROS-SENSITIVE FLUORESCENT PROBES” (The Regents of the University of California, priority 2013, published 2014).
